# Laboratory results as given in US6048892A, “Ester compound pesticide containing thereof” (Sumitomo Chemical Company, Limited, priority 1999, dated 2000).
# Key:
# [1] = system: webbing clothes moth (Tineola bisselliella); experiment: Biological Test 13: volatile agent in cup, mortality and fabric damage; format: in vivo; settings: volatile agent (100 μg on filter paper), 950 cm^3 cup, 25° C., 1 week; for mortality: 10080 min
# Method: A wool muslin fabric (2 cm×2 cm in size) was placed on the bottom of a polyethylene cup (bottom diameter: 10 cm, opening part diameter: 12.5 cm, height: 9.5 cm, volume: 950 cm^3). Ten middle instar larvae of webbing clothes moth (Tineola bisselliella) were put in the cup and each of the volatile agents prepared according to the formulation example 14 was hung from the cap in the interior of the cup. After standing at 25° C. for 1 week, the cup was opened, and the mortality and the degree of damage of the wool muslin fabric by the moths were examined (two replicate).
# [2] = system: webbing clothes moth (Tineola bisselliella); experiment: Biological Test 12: topical application to larvae of webbing clothes moth, mortality and fabric damage; format: in vivo; settings: for degree of damage of the wool muslin fabric: 3 μg/insect, after 7 days; for mortality at 0.003 mg: Tineola bisselliella, 168 h
# Method: Each of the present compounds diluted with acetone to a predetermined concentration was applied to ten middle instar larvae of webbing clothes moth (Tineola bisselliella) at the central part of the back so as to give the active ingredient in a dose of 3 μg/insect. A wool muslin fabric (2 cm×2 cm in size) was given to the webbing clothes moths as the food. After 7 days, the mortality and the degree of damage of the wool muslin fabric by the moths were examined (two replicate).
# [3] = system: webbing clothes moth (Tineola bisselliella); experiment: Biological Test 14: treated filter paper in cardboard box, percent moribund, fabric damage and persistence; format: in vivo; settings: 36 mg on filter paper
# Method: A filter paper (3.2 cm×3.2 cm in size) treated with 36 mg of each of the present compounds and two wool muslin fabrics (25 cm×25 cm in size) were hung down at the upper part of a corrugated cardboard box (29 cm×29 cm×29 cm in size). After standing at 25° C. and a humidity of 60% for 1 week, two tea-strainer balls holding 7 to 10 middle instar larvae of webbing clothes moth (Tineola bisselliella) and one piece of wool muslin cloth (2 cm×2 cm in size) were hung down at the upper part of the box. The box was closed with a lid. After one week, the box was opened, and the percent moribund and the degree of damage of the wool muslin cloth by the moths were examined. The same tests was repeated 2 weeks, 3 weeks and 5 weeks after the treatment to examine the persistance of the present compound. The degree of damage was represented by "-" in no damage, "+" in slight damage, "++" in heavy damage and "+++" in severe damage.
# [4] = system: tobacco cutworm (Spodoptera litura); experiment: Biological Test 1: mortality of larvae on impregnated artificial bait; format: in vivo; settings: 144 h, read-out: mortality of the larvae
# Method: Emulsifiable concentrates were prepared for each of the present compounds according to the formulation example 1. Thirteen grams of artificial bait for tobacco cutworm (Spodoptera litura) were placed in a polyethylene cup (diameter: 11 cm) and impregnated with 2 ml of the 500 ppm emulsion prepared by diluting the emulsifiable concentrates with water. Ten 4-instar larvae of Spodoptera litura were put in the polyethylene cup. After 6 days, the mortality of the larvae was examined.
# [5] = system: German cockroaches (Blattella germanica); experiment: Biological Test 5: mortality of male German cockroaches low sensitive to pyrethroids, treated filter paper; format: in vivo; settings: 144 h
# Method: (§1) Filter paper of 5.5 cm in diameter was laid in the bottom of a polyethylene cup (diameter: 5.5 cm). After 0.7 ml of a 500 ppm aqueous emulsion obtained by diluting each emulsifiable concentrate prepared according to the formulation example 1 was dropped on the filter paper and approximately 30 mg of sucrose as bait was uniformly scattered. Two male German cockroaches (Blattella germanica), which were low sensitive to pyrethroids, were left in the cup with a cover. After six days, the mortality was examined.
# [6] = system: houseflies (Musca domestica); experiment: Biological Test 17: topical application of compound (2) with piperonyl butoxide, mortality; format: in vivo; settings: after 24 hours
# Method: The combination rate of piperonyl butoxide to the present compound was 0, 2, 4, 8 and 16 times. The mixture was dissolved in acetone. The acetone solution (0.5 μL) was applied to 10 female houseflies (Musca domestica) at the back thoracic region. After 24 hours, the number of dead insects was observed (2 repetition) and mortality was calculated.
# [7] = system: houseflies (Musca domestica); experiment: Biological Test 4: mortality of female houseflies low sensitive to pyrethroids, treated filter paper; format: in vivo; settings: 24 h
# Method: as §1, with “Ten female houseflies (Musca domestica),” for “Two male German cockroaches (Blattella germanica),”, “one day,” for “six days,”
# [8] = system: common mosquitoes (Culex pipiens pallens); experiment: Biological Test 11: mosquitoes in cup over treated aluminum plate without direct contact, mortality; format: in vivo; settings: 24 h
# Method: After 0.64 ml of a 0.05 (w/v) % acetone solution of the present compounds was dropped into an aluminum plate (bottom diameter: 7 cm), acetone was air-dried. Ten female common mosquitoes (Culex pipiens pallens) were left in a polyethylene cup (diameter: 9 cm; depth: 4.5 cm) and the cup was sealed with a 16-mesh nylon net to prevent direct contact of the mosquitoes with the compound. The cup was placed upside down on the aluminum plate at 25° C. for 120 minutes. The cup was then removed from the aluminum plate, and water and feed were given to the mosquitoes. After 24 hours, the mortality was examined (two replicate).
# [9] = system: common mosquitoes (Culex pipiens pallens); experiment: Biological Test 6: mortality of last-instar mosquito larvae in water; format: in vivo; settings: 24 h, read-out: mortality of the common mosquitoes
# Method: 0.7 ml of aqueous emulsion, obtained by diluting emulsifiable concentrate prepared for each of the present compounds according to the formulation example 1, was added to 100 ml of ion-exchanged water (concentration of active ingredient: 3.5 ppm). Twenty last-instar larvae of common mosquitoes (Culex pipiens pallens) were left in the water. After one day, the mortality of the common mosquitoes was examined.
# [10] = system: southern corn rootworm (Diabrotica undecimpunctata howardi); experiment: Biological Test 3: mortality of hatched larvae and eggs; format: in vivo; settings: 192 h, read-out: mortality of the hatched larvae and eggs
# Description: Filter paper of 5.5 cm in diameter was laid in the bottom of a polyethylene cup (diameter: 5.5 cm). […] After 8 days, the mortality of the hatched larvae and eggs was examined.
# [11] = system: common mosquitoes (Culex pipiens pallens); experiment: Biological Test 8: knock-down of mosquitoes by mosquito-coil; format: in vivo; settings: 1.0 g of 0.3% mosquito-coil in 0.34 m^3 chamber; after 15 minutes
# Method: Mosquito-coil containing the present compound in an amount of 0.3% was prepared according to the formulation example 10 for the present compounds. Ten female common mosquitoes (Culex pipiens pallens) were left in a glass chamber (70 cm×70 cm×70 cm: 0.34 m^3) and 1.0 g of 0.3% mosquito-coil having both ends lit was placed in the glass chamber. After 15 minutes, the rate of knocked-down mosquitoes was examined.
# [12] = system: common mosquitoes (Culex pipiens pallens); experiment: Biological Test 7: knock-down of mosquitoes by sprayed oil solution; format: in vivo; settings: 0.7 ml of 0.1% oil solution sprayed in 0.34 m^3 chamber; after 15 minutes
# Method: Ten female common mosquitoes (Culex pipiens pallens) were left in a glass chamber (70 cm×70 cm×70 cm: 0.34 m^3). 0.7 ml of 0.1% oil solution prepared for each of the present compounds according to the formulation example 7 was sprayed with a spray gun at 0.8 atmospheric pressure. After 15 minutes, the rate of knocked-down mosquitoes was examined.
# [13] = system: brown planthopper (Nilaparvata lugens); experiment: Biological Test 2: mortality of larvae on dipped rice plant stalk; format: in vivo; settings: 144 h, read-out: mortality of the larvae
# Method: A stalk of a rice plant was dipped for one minute in a 500 ppm aqueous emulsion obtained by diluting each emulsifiable concentrate of the present compounds prepared according to the formulation example 1. The rice plant stalk was air-dried and placed in a polyethylene cup (diameter: 5.5 cm) where filter paper (diameter: 5.5 cm) impregnated with 1 ml of water was put. Approximately 30 larvae of brown planthopper (Nilaparvata lugens) were put in the polyethylene cup. After 6 days, the mortality of the larvae was examined.
# [14] = Toxicity Test: acute oral LD50; settings: rat, in vivo, corn oil, fasted male 7-week old rats, after 7 days
# Method: After subjecting the rats to a twenty-hour fasting, 0.1 ml of the diluted solution per 10 g weight was forcibly applied into the stomach of four male 7-week old rats. The rats were given food and water four hours after the application and thereafter regularly fed and watered, and kept in a cage. After 7 days, the mortality was examined for the rats and LD50 was calculated.
smiles,measurement,setting,value
"CCc1ccc(COC(=O)[C@@H]2[C@H](/C=C(\Cl)C(F)(F)F)C2(C)C)o1 (relative stereo) [(2), 5-ethyl-2-furfuryl (1RS,cis)-3-(Z-2-chloro-3,3,3-trifluoroprop-1-enyl)-2,2-dimethyl-cyclopropanecarboxylate]",degree of damage of the wool muslin fabric,[1],no damage
same,mortality,[1],100%
same,degree of damage of the wool muslin fabric,[2],no damage
same,mortality at 0.003 mg,[2],100%
same,degree of damage,[3]; After 1 week,-
same,degree of damage,[3]; After 2 weeks,-
same,degree of damage,[3]; After 3 weeks,-
same,degree of damage,[3]; After 5 weeks,-
same,mortality at 500 µg/mL,[4],100%
same,mortality at 500 ppm,[5],100%
same,Mortality (%),"[6]; compound (2) 0.2 μg/female, piperonyl butoxide 0",30%
same,Mortality (%),[6]; compound (2) 0.2 + piperonyl butoxide 0.4 μg/female,85%
same,Mortality (%),[6]; compound (2) 0.2 + piperonyl butoxide 0.8 μg/female,100%
same,Mortality (%),[6]; compound (2) 0.2 + piperonyl butoxide 1.6 μg/female,100%
same,Mortality (%),[6]; compound (2) 0.2 + piperonyl butoxide 3.2 μg/female,100%
same,mortality at 500 ppm,[7],100%
same,mortality at 500 µg/mL,[8],100%
same,mortality at 3.5 ppm,[9],≥ 90%
same,mortality at 50 ppm,[10],100%
same,rate of knocked-down mosquitoes,[11],100%
same,rate of knocked-down mosquitoes,[12],≥ 90%
same,mortality at 500 ppm,[13],≥ 90%
"CC1(C)C(/C=C(\Cl)C(F)(F)F)C1C(=O)OCc1coc(Cc2ccccc2)c1 (stereo not shown) [A, reference compound]",degree of damage,[3]; After 1 week,+++
same,degree of damage,[3]; After 2 weeks,+++
same,degree of damage,[3]; After 3 weeks,+++
same,degree of damage,[3]; After 5 weeks,+++
same,LD50 at 168 h,[14],< 50 mg/kg
"CCCc1ccc(COC(=O)[C@@H]2[C@H](/C=C(\Cl)C(F)(F)F)C2(C)C)o1 (relative stereo) [(3), 5-propyl-2-furfuryl (1RS,cis)-3-(Z-2-chloro-3,3,3-trifluoroprop-1-enyl)-2,2-dimethylcyclopropanecarboxylate]",degree of damage of the wool muslin fabric,[1],no damage
same,mortality,[1],100%
same,degree of damage of the wool muslin fabric,[2],no damage
same,mortality at 0.003 mg,[2],100%
same,degree of damage,[3]; After 1 week,-
same,degree of damage,[3]; After 2 weeks,-
same,degree of damage,[3]; After 3 weeks,-
same,degree of damage,[3]; After 5 weeks,-
same,mortality at 500 µg/mL,[4],100%
same,mortality at 500 ppm,[5],100%
same,mortality at 500 ppm,[7],100%
same,mortality at 500 µg/mL,[8],100%
same,mortality at 3.5 ppm,[9],≥ 90%
same,mortality at 50 ppm,[10],100%
same,rate of knocked-down mosquitoes,[11],100%
same,rate of knocked-down mosquitoes,[12],≥ 90%
same,mortality at 500 ppm,[13],≥ 90%
"C#CCc1ccc(COC(=O)C2C(/C=C(\Cl)C(F)(F)F)C2(C)C)o1 (stereo not shown) [C, reference compound]",degree of damage,[3]; After 1 week,+++
same,degree of damage,[3]; After 2 weeks,+++
same,degree of damage,[3]; After 3 weeks,+++
same,degree of damage,[3]; After 5 weeks,+++
same,LD50 at 168 h,[14],< 100 mg/kg
"C=CCc1ccc(COC(=O)[C@@H]2[C@H](/C=C(\Cl)C(F)(F)F)C2(C)C)o1 (relative stereo) [(4), 5-allyl-2-furfuryl (1RS,cis)-3-(Z-2-chloro-3,3,3-trifluoroprop-1-enyl)-2,2-dimethylcyclopropanecarboxylate]",degree of damage of the wool muslin fabric,[1],no damage
same,mortality,[1],100%
same,degree of damage of the wool muslin fabric,[2],no damage
same,mortality at 0.003 mg,[2],100%
same,degree of damage,[3]; After 1 week,-
same,degree of damage,[3]; After 2 weeks,-
same,degree of damage,[3]; After 3 weeks,-
same,degree of damage,[3]; After 5 weeks,-
same,mortality at 500 µg/mL,[4],100%
same,mortality at 500 ppm,[5],100%
same,mortality at 500 ppm,[7],100%
same,mortality at 500 µg/mL,[8],100%
same,mortality at 3.5 ppm,[9],≥ 90%
same,mortality at 50 ppm,[10],100%
same,rate of knocked-down mosquitoes,[11],100%
same,rate of knocked-down mosquitoes,[12],≥ 90%
same,mortality at 500 ppm,[13],≥ 90%
"CC1(C)C(/C=C(\Cl)C(F)(F)F)C1C(=O)OCc1ccc(C(F)F)o1 (stereo not shown) [B, reference compound]",degree of damage,[3]; After 1 week,+++
same,degree of damage,[3]; After 2 weeks,+++
same,degree of damage,[3]; After 3 weeks,+++
same,degree of damage,[3]; After 5 weeks,+++
